From US10703755B2, “Substituted purine derivative” (SUMITOMO DAINIPPON PHARMA CO., LTD., priority 2016, dated 2020)

Biological target: human TLR7 (Homo sapiens (Human), UniProt Q9NYK1)
Assay: Test for evaluating the inhibition of the activation of human TLR7 (SEAP reporter, TLR7/NF-κB/SEAPorter HEK293 cell)
Format: cell-based
Conditions: R-848 200 nmol/L; for IC50: SEAP reporter; for inhibitory effect against TLR7 in the test for evaluating inhibition of the activation of TLR7: SEAP activity, result in words
In short: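 HEK293 cells stably expressing full-length human TLR7 and an NF-κB-driven SEAP reporter. They were grown in DMEM with 10% FBS and blasticidin, and seeded at 5×10^4 cells/well overnight at 37° C, 5% CO2. Inhibition of TLR7 activation was read as SEAP output.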

Sequence of human TLR7 (Q9NYK1 27-1049): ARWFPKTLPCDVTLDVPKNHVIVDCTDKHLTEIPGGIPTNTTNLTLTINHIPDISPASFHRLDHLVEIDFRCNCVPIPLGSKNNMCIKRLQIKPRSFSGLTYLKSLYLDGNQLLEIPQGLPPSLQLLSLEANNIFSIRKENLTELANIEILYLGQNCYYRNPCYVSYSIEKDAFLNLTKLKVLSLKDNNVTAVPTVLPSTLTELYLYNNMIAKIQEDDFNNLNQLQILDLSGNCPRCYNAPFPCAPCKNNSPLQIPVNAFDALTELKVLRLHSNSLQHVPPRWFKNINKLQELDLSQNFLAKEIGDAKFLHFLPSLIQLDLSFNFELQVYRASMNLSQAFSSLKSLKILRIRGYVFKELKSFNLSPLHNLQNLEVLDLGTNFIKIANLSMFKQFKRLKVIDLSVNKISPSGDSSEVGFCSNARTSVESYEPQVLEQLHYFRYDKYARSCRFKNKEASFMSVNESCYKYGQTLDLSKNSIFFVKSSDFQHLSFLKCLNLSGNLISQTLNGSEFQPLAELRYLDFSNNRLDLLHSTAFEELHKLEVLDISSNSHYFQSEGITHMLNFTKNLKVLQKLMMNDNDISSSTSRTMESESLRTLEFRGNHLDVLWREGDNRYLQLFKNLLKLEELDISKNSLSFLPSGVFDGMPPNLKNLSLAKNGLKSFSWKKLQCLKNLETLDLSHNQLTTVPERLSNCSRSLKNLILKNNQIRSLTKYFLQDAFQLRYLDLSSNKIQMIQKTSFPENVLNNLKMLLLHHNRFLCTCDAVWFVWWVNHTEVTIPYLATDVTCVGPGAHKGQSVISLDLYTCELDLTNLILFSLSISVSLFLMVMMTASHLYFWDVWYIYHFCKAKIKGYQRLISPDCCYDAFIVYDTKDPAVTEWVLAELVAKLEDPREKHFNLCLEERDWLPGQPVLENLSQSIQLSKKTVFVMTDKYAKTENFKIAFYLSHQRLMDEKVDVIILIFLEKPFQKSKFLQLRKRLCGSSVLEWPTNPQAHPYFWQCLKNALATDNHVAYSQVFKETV

Row | Structure (SMILES) | IC50 [nM] | inhibitory effect against TLR7 in the test for evaluating inhibition of the activation of TLR7
1 | CCOc1nc(N)c2nc(-c3cncc(F)c3)n(Cc3ccc4c(c3)CN(C)C4)c2n1 [Example 137] | 840 | 
2 | COc1nc(C)c2nc(-c3cncc(F)c3)n(Cc3cccc(C4CN5CCC4CC5)c3)c2n1 (stereo not drawn) [Example 386, 9-[3-(1-azabicyclo[2.2.2]oct-3-yl)benzyl]-8-(5-fluoropyridin-3-yl)-2-methoxy-6-methyl-9H-purine] | 13 | potent inhibitory effect against TLR7
3 | CCOc1nc(C)c2nc(-c3cncc(F)c3)n(Cc3cnn(CC4CCCN(C)C4)c3)c2n1 (stereo not drawn) [Example 276] | 24 | potent inhibitory effect against TLR7
4 | COc1nc(C)c2nc(-c3cncc(F)c3)n(Cc3ccc(CN4CCC4)cc3F)c2n1 [Example 260, 9-[4-(azetidin-1-ylmethyl)-2-fluorobenzyl]-8-(5-fluoropyridin-3-yl)-2-methoxy-6-methyl-9H-purine] | 18 | potent inhibitory effect against TLR7
5 | COc1nc(C)c2nc(-c3cncc(F)c3)n(Cc3ccc(OS(C)(=O)=O)cc3F)c2n1 [Example 342] | 816 | 
6 | CCOc1nc(C)c2nc(-c3cncc(F)c3)n(Cc3ccc(C4=CN5CCC4CC5)nc3C(F)(F)F)c2n1 [Example 360] | 1720 | 
7 | Cc1nc(O)nc2c1nc(-c1cncc(F)c1)n2Cc1ccc(C2=CN3CCC2CC3)c(F)c1 [Example 358] | 18 | 
8 | CCOc1nc(C)c2nc(-c3cncc(F)c3)n(Cc3ccc(CN4CCN(C)CC4)cc3)c2n1 [Example 262] | 27 | potent inhibitory effect against TLR7
9 | CCOc1nc(C)c2nc(-c3cncc(C#N)c3)n(Cc3ccc(CN4C[C@@H]5C[C@H]4CN5C)cc3F)c2n1 [Example 311, 5-[2-ethoxy-9-(2-fluoro-4-{[(1S,4S)-5-methyl-2,5-diazabicyclo[2.2.1]hept-2-yl]methyl}benzyl)-6-methyl-9H-purin-8-yl]pyridine-3-carbonitrile] | 11 | potent inhibitory effect against TLR7
10 | COc1nc(C)c2nc(-c3cnccc3C)n(Cc3ccc(C4CN5CCC4CC5)cc3F)c2n1 (stereo not drawn) [Example 304, 9-[4-(1-azabicyclo[2.2.2]oct-3-yl)-2-fluorobenzyl]-2-methoxy-6-methyl-8-(4-methylpyridin-3-yl)-9H-purine] | 4 | potent inhibitory effect against TLR7
11 | COc1nc(C)c2nc(-c3cncc(F)c3)n(Cc3ccc(O[C@H]4C[C@H]5CC[C@@H](C4)N5)cc3F)c2n1 [Example 433] | 9 | potent inhibitory effect against TLR7
12 | CCCCNc1nc(N)c2nc(-c3cncc(F)c3)n(Cc3ccc(CN(C)C)cc3)c2n1 [Example 154] | 13600 | 

More lines, now with the values ahead:

Row | IC50 [nM] | inhibitory effect against TLR7 in the test for evaluating inhibition of the activation of TLR7 | Structure (SMILES)
13 | 660 |  | CCOc1nc(N)c2nc(-c3cncc(F)c3)n(Cc3ccc(OCCN(C)C)cn3)c2n1 [Example 56]
14 | 582 |  | CCOc1nc(C)c2nc(-c3cncc(F)c3)n(Cc3ccc(C4=CN5CCC4CC5)nc3C#N)c2n1 [Example 361]
15 | 28 |  | CCOc1nc(C)c2nc(-c3cncc(F)c3)n(Cc3cnn(CC4COCCN4)c3)c2n1 (stereo not drawn) [Example 427]
16 | 2000 |  | CCOc1nc(N)c2nc(-c3cncc(F)c3)n(Cc3cc(OC)ccc3F)c2n1 [Example 43]
17 | 100 |  | CCOc1nc(C)c2nc(-c3cncc(F)c3)n(Cc3cnn(CC4CNCCO4)c3)c2n1 (stereo not drawn) [Example 424]
18 | 10900 |  | CCCCOc1nc(N)c2nc(-c3ccccc3)n(Cc3ccccc3)c2n1 [Example 11]
19 | 3 | potent inhibitory effect against TLR7 | COc1nc(C)c2nc(-c3cncc(F)c3)n(Cc3ccc(CN4C[C@@H]5C[C@H]4CN5C)cc3F)c2n1 [Example 280, 9-(2-fluoro-4-{[(1S,4S)-5-methyl-2,5-diazabicyclo[2.2.1]hept-2-yl]methyl}benzyl)-8-(5-fluoropyridin-3-yl)-2-methoxy-6-methyl-9H-purine]
